Holding throughout (format): functional
Test [1] deals with Aspergillus niger. In words: Fungicidal activity against Aspergillus niger assessed as growth inhibition at 1000 ug/ml after 7 days. To be noted: 168 h, read-out: IZ.
Test [2] concerns Aspergillus niger. In words: Fungicidal activity against Aspergillus niger assessed as growth inhibition at 50 ug/ml after 7 days. To be noted: 168 h, read-out: IZ.
Test [3] deals with Aspergillus niger. In words: Fungicidal activity against Aspergillus niger assessed as growth inhibition at 100 ug/ml after 7 days. To be noted: 168 h, read-out: IZ.
Test [4] concerns Aspergillus niger. In words: Fungicidal activity against Aspergillus niger assessed as growth inhibition at 10 ug/ml after 7 days. To be noted: 168 h, read-out: IZ.
In test [5] the test system is Aspergillus niger. In words: Fungicidal activity against Aspergillus niger assessed as time required for hyphae to burst at 5 ug/ml.
For test [6], the system named is Aspergillus niger. In words: Fungicidal activity against Aspergillus niger assessed as time required for hyphae to burst at 10 ug/ml.
For test [7], the system named is Aspergillus niger. The experiment in a line: Fungicidal activity against Aspergillus niger assessed as time required for hyphae to burst at 2.5 ug/ml.
The test system of test [8] is Aspergillus niger. In words: Fungicidal activity against Aspergillus niger assessed as time required for hyphae to burst at 7.5 ug/ml.

The values below come from ChEMBL document CHEMBL3045392, “Synthesis and fungicidal evaluation of some new anilinopyrimidine derivatives” (2013).

Structures are written as SMILES.

As for `Cc1nc(Nc2ccccc2)nc2c1C(=N)C(C#N)CN(C(=O)c1ccccc1)C2` (configuration not stated), in the test with Aspergillus niger [1], the zone of inhibition at 1000 µg/mL was determined as 2.1 mm. The zone of inhibition at 50 µg/mL in the test with Aspergillus niger [2] worked out at 1.02 mm. Besides, in the test on Aspergillus niger [3], the zone of inhibition at 100 µg/mL came to 1.33 mm. Moreover, the zone of inhibition at 10 µg/mL with Aspergillus niger [4] was 1 mm.

Regarding `Cc1cc(CBr)nc(Nc2ccccc2)n1`, the zone of inhibition at 1000 µg/mL in the test with Aspergillus niger [1] stood at 2.2 mm. Moreover, the zone of inhibition at 50 µg/mL in the test on Aspergillus niger [2] was 1.9 mm. For the same molecule, in the test with Aspergillus niger [3], the zone of inhibition at 100 µg/mL came out at 2 mm. In addition, the zone of inhibition at 10 µg/mL with Aspergillus niger [4] was determined as 1.5 mm.

For the molecule `Cc1nc(Nc2ccccc2)nc(C)c1Br`, the zone of inhibition at 1000 µg/mL with Aspergillus niger [1] turned out to be 2.9 mm. In addition, in the test with Aspergillus niger [2], the zone of inhibition at 50 µg/mL is 2.1 mm. For the same molecule, the zone of inhibition at 100 µg/mL with Aspergillus niger [3] came to 2.5 mm. Further, the zone of inhibition at 10 µg/mL in the test on Aspergillus niger [4] was determined as 1.6 mm.

Consider `Cc1nc(Nc2ccccc2)nc(C)c1C#N`, for which the zone of inhibition at 1000 µg/mL in the test on Aspergillus niger [1] was found to be 2.5 mm. Moreover, the zone of inhibition at 50 µg/mL in the test with Aspergillus niger [2] was 1.7 mm. Besides, the zone of inhibition at 100 µg/mL in the test on Aspergillus niger [3] turned out to be 1.9 mm. The zone of inhibition at 10 µg/mL in the test with Aspergillus niger [4] came to 1.4 mm.

Turning to `CC(=O)N(c1ccccc1)c1nc(C)cc(C)n1` [N-ACETYL PYRIMETHANIL], the Time in the test on Aspergillus niger [5] is listed as 18 s; in the test with Aspergillus niger [6] it was 51 s; in the test on Aspergillus niger [7], 9 s; in the test with Aspergillus niger [8], 32 s. Further, the zone of inhibition at 1000 µg/mL in the test on Aspergillus niger [1] is 3.4 mm. Moreover, the zone of inhibition at 50 µg/mL in the test on Aspergillus niger [2] stood at 2.4 mm. Also, in the test on Aspergillus niger [3], the zone of inhibition at 100 µg/mL stood at 2.7 mm. Further, in the test with Aspergillus niger [4], the zone of inhibition at 10 µg/mL turned out to be 2.1 mm.

`Cc1cc(C)nc(Nc2ccccc2)n1` [PYRIMETHANIL]: the Time in the test on Aspergillus niger [5] stood at 21 s; in the test on Aspergillus niger [6] it was 56 s; in the test with Aspergillus niger [7], 12 s; in the test with Aspergillus niger [8], 39 s. Also, in the test with Aspergillus niger [1], the zone of inhibition at 1000 µg/mL was 4 mm. Besides, the zone of inhibition at 50 µg/mL in the test with Aspergillus niger [2] worked out at 2.9 mm. In the test on Aspergillus niger [3], the zone of inhibition at 100 µg/mL turned out to be 3.2 mm. In the test with Aspergillus niger [4], the zone of inhibition at 10 µg/mL was found to be 2.6 mm.
